Holding throughout (type): in vivo
The test system of assay [1] is Two-Spotted Spider Mite (Tetranychus Urticae). The assay can be described thus: Test against two-spotted spider mite (Tetranychus urticae), spray. To be noted: active compound concentration of 100 ppm; adult mites; after 7 days. The text has this: (§1) Solvent: 3 parts by weight of dimethylformamide
(§2) Emulsifier: 1 part by weight of polyoxyethylene alkyl phenyl ether

Assay [2] concerns Tobacco Cutworm (Spodoptera litura) Larvae. Kind of assay: Test against tobacco cutworm (Spodoptera litura) larvae, leaf dip. Particulars: active compound concentration of 100 ppm, third instar larvae, after 7 days. In a few lines:
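Sweet potato leaves were dipped in the test solution (DMF solvent, polyoxyethylene alkyl phenyl ether emulsifier), air-dried and offered to ten third-instar larvae per dish at 25 °C, with fresh leaves added on days 2 and 4. Mortality was counted at day 7 and expressed as % insecticidal activity (100% = all dead).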

Assay [3] relates to Cucurbit Leaf Beetle (Aulacophora Femoralis). The assay can be described thus: Test against cucurbit leaf beetle (Aulacophora femoralis), leaf dip. Particulars: active compound concentration of 100 ppm, second instar larvae, after 7 days. The method, then:
as §1, §2
Leaves of cucumber were immersed in the test solution at the appropriate concentration, and the leaves were dried in air. The leaves were then put in a plastic cup containing sterilized black soil and five Aulacophora femoralis at second instar larvae were released in the cup. The cups were placed in a temperature-controlled chamber at 25° C. After 7 days, the number of dead larvae was counted, and thus the insecticidal activity was calculated. An insecticidal activity of 100% means that all larvae were killed, whereas an insecticidal activity of 0% means that no larva was killed.

Each structure is given as a SMILES string.

Consider `Cc1cc(C(F)(C(F)(F)F)C(F)(F)F)cc(OC(F)F)c1NC(=O)c1ccc(CNC(=O)CC(F)(F)F)c(Cl)c1` [Compound 5-296], for which, in assay [1], the acaricidal activity was 100%. Moreover, the insecticidal activity in assay [2] and in assay [3] was 100% each time.

Compound `O=C(CC(F)(F)F)NCc1ccc(C(=O)Nc2c(Cl)cc(C(F)(C(F)(F)F)C(F)(F)C(F)(F)F)cc2Cl)cc1Cl` (racemic) [Compound 5-244] yielded an acaricidal activity in assay [1] of 100%. Moreover, the insecticidal activity in assay [2] and in assay [3] was 100% in each case.

`CCC(=O)NCc1ccc(C(=O)Nc2c(Cl)cc(C(F)(C(F)(F)F)C(F)(F)C(F)(F)F)cc2Cl)cc1Cl` (racemic) [Compound 5-243] registered an acaricidal activity in assay [1] of 100%. Moreover, the insecticidal activity in assay [2] and in assay [3] was 100% each time.

In turn, `CCc1cc(C(F)(C(F)(F)F)C(F)(F)F)cc(C)c1NC(=O)c1ccc(C(C)NC(C)=O)cc1` (stereo not drawn) [Compound 9-2, 4-(1-acetamidoethyl)-N-[2-ethyl-4-(1,1,1,2,3,3,3-heptafluoropropan-2-yl)-6-methylphenyl]benzamide] showed an acaricidal activity in assay [1] of 100%. The pest or weed control at 100 ppm was 100% in assay [2] (Spodoptera litura, foliar, 168 h, read-out: insecticidal activity) and 100% in assay [3] (Aulacophora, foliar, 168 h, read-out: insecticidal activity).

`CCc1cc(C(F)(C(F)(F)F)C(F)(F)F)cc(C)c1NC(=O)c1ccc(CNC(=O)CC2CC2)c(Br)c1` [Compound 5-88] yielded an acaricidal activity in assay [1] of 100%. In assay [2], this compound came in with an insecticidal activity of 100%.

Compound `CCc1cc(C(F)(C(F)(F)F)C(F)(F)F)cc(C)c1NC(=O)c1ccc(CNC(=O)COC)c(Br)c1` [Compound 5-91] returned an acaricidal activity in assay [1] of 100%. Moreover, the insecticidal activity in assay [2] is listed as 100%.

With `CCc1cc(C(F)(C(F)(F)F)C(F)(F)F)cc(C)c1NC(=O)c1ccc(CNC(=O)CSC)cc1` [Compound 5-33], the acaricidal activity in assay [1] was found to be 100%.

The compound `Cc1cc(C(F)(C(F)(F)F)C(F)(F)F)cc(OC(F)F)c1NC(=O)c1ccc(CNC(=O)CC2CC2)c(Cl)c1` [Compound 5-340] returned an acaricidal activity in assay [1] of 100%. The same compound gave an insecticidal activity in assay [2] of 100%.

Regarding `CCC(=O)NC1CCc2cc(C(=O)Nc3c(C)cc(C(F)(C(F)(F)F)C(F)(F)C(F)(F)F)cc3CC)ccc21` (stereo not drawn) [Compound 10-10], in assay [1], the acaricidal activity is given as 100%. The insecticidal activity in assay [2] is recorded as 100%.

In assay [1], `CCC(=O)NCc1ccc(C(=O)Nc2c(C)cc(C(F)(C(F)(F)F)C(F)(F)F)cc2CC)cc1` [Compound 5-29] had an acaricidal activity of 100%. For the same compound, the insecticidal activity in assay [2] turned out to be 100%.

In assay [1], `CCc1cc(C(F)(C(F)(F)F)C(F)(F)C(F)(F)F)cc(C)c1NC(=O)c1ccc(CNC(=O)CC(F)(F)F)c(Cl)c1` (stereo not drawn) [Compound 5-154] registered an acaricidal activity of 100%. Further, the insecticidal activity in assay [2] and in assay [3] was 100% throughout.

In turn, `CCc1cc(C(F)(C(F)(F)F)C(F)(F)F)cc(C)c1NC(=O)c1ccc(CNC(=O)c2ccc(F)cc2)cc1` [Compound 5-36] had an acaricidal activity in assay [1] of 100%. Also, the insecticidal activity in assay [2] and in assay [3] was 100% throughout.

In assay [1], `CCC(=O)NCc1ccc(C(=O)Nc2c(C)cc(C(F)(C(F)(F)F)C(F)(F)F)cc2CC)cc1F` [Compound 5-72] yielded an acaricidal activity of 100%. In assay [2], this compound gave an insecticidal activity of 100%.

For `CCc1cc(C(F)(C(F)(F)F)C(F)(F)C(F)(F)F)cc(C)c1NC(=O)c1ccc(CNC(=O)c2cccnc2F)c(Cl)c1` (stereo not drawn) [Compound 5-155], in assay [1], the acaricidal activity is 100%. Also, the insecticidal activity in assay [2] and in assay [3] was 100% in each case.

As for `CCc1cc(C(F)(C(F)(F)F)C(F)(F)Br)cc(C)c1NC(=O)c1ccc(CNC(C)=O)c(Cl)c1` (stereo not drawn) [Compound 5-219], the acaricidal activity in assay [1] is listed as 100%. For the same compound, the insecticidal activity in assay [2] and in assay [3] was 100% each time.

For the compound `CCc1cc(C(F)(C(F)(F)F)C(F)(F)F)cc(C)c1NC(=O)c1ccc(CNC(C)=O)cc1F` [Compound 5-44], in assay [1], the acaricidal activity amounted to 100%. For the same compound, the insecticidal activity in assay [3] is 100%.

Consider `CCC(=O)NCc1ccc(C(=O)Nc2c(C)cc(C(F)(C(F)(F)F)C(F)(F)F)cc2CC)cc1Cl` [Compound 5-78], for which, in assay [1], the acaricidal activity worked out at 100%. Besides, the insecticidal activity in assay [2] and in assay [3] was 100% in each case.

In turn, `Cc1cc(C(F)(C(F)(F)F)C(F)(F)C(F)(F)F)cc(C)c1NC(=O)c1ccc(CNC(=O)CC(F)(F)F)c(F)c1F` (stereo not drawn) [Compound 5-213] showed an acaricidal activity in assay [1] of 100%. Besides, the insecticidal activity in assay [2] and in assay [3] was 100% in each case.

For the compound `CCc1cc(C(F)(C(F)(F)F)C(F)(F)Br)cc(C)c1NC(=O)c1ccc(CNC(=O)CC2CC2)c(Cl)c1` (stereo not drawn) [Compound 5-319], the acaricidal activity in assay [1] was 100%. In assay [2], this compound returned an insecticidal activity of 100%.

`CCC(=O)N(C)Cc1ccc(C(=O)Nc2c(C)cc(C(F)(C(F)(F)F)C(F)(F)F)cc2CC)cc1` [Compound 5-186]: the acaricidal activity in assay [1] stood at 100%.

In assay [1], `CCc1cc(C(F)(C(F)(F)F)C(F)(F)F)cc(C)c1NC(=O)c1ccc(CN(C)C(=O)CC2CC2)cc1` [Compound 5-187] yielded an acaricidal activity of 100%.

The compound `CCc1cc(C(F)(C(F)(F)F)C(F)(F)F)cc(C)c1NC(=O)c1ccc(CNC(=O)CC(F)(F)F)c(C(F)(F)F)c1` [Compound 5-110] returned an acaricidal activity in assay [1] of 100%. This compound also yielded an insecticidal activity in assay [2] of 100%.

Take `CCc1cc(C(F)(C(F)(F)F)C(F)(F)F)cc(C)c1NC(=O)c1ccc(CNC(=O)CC(F)(F)F)c(I)c1` [Compound 5-192]: the acaricidal activity in assay [1] was found to be 100%. Also, the insecticidal activity in assay [2] is 100%.

Regarding `CCc1cc(C(F)(C(F)(F)F)C(F)(F)F)cc(C)c1NC(=O)c1ccc(CN(C)C(=O)CC(F)(F)F)cc1` [Compound 5-188], the acaricidal activity in assay [1] is 100%. In assay [2], this compound gave an insecticidal activity of 100%.

Turning to `CCC(=O)NCc1ccc(C(=O)Nc2c(Cl)cc(C(F)(C(F)(F)F)C(F)(F)F)cc2Cl)cc1` [Compound 5-224], the acaricidal activity in assay [1] stood at 100%. This compound came in with an insecticidal activity in assay [3] of 100%.

Consider `CCc1cc(C(F)(C(F)(F)F)C(F)(F)F)cc(C)c1NC(=O)c1ccc2c(c1)CCCC2NC(C)=O` (stereo not drawn) [Compound 11-2], for which, in assay [1], the acaricidal activity is on record as 100%. The insecticidal activity in assay [2] stood at 100%.

Turning to `CCc1cc(C(F)(C(F)(F)F)C(F)(F)C(F)(F)F)cc(C)c1NC(=O)c1ccc(CNC(=O)CC2CC2)c(Cl)c1` (stereo not drawn) [Compound 5-153], in assay [1], the acaricidal activity worked out at 100%. The insecticidal activity in assay [2] was 100%.

In assay [1], `CCc1cc(C(F)(C(F)(F)F)C(F)(F)F)cc(C)c1NC(=O)c1ccc(CNC(=O)c2cccnc2Cl)c(Br)c1` [Compound 5-94] displayed an acaricidal activity of 100%. The insecticidal activity in assay [2] was determined as 100%.

For the compound `CCc1cc(C(F)(C(F)(F)F)C(F)(F)F)cc(C)c1NC(=O)c1ccc(CNC(=O)c2cccnc2F)c(C(F)(F)F)c1` [Compound 5-112], in assay [1], the acaricidal activity stood at 100%. The compound also had an insecticidal activity in assay [2] of 100%.

With `CCc1cc(C(F)(C(F)(F)F)C(F)(F)F)cc(C)c1NC(=O)c1ccc(CNC(=O)c2ccc(F)cc2)c(Br)c1` [Compound 5-92], the acaricidal activity in assay [1] stood at 100%.

For the compound `CCc1cc(C(F)(C(F)(F)F)C(F)(F)F)cc(C)c1NC(=O)c1ccc(CNC(=O)c2cccnc2F)cc1` [Compound 5-40], the acaricidal activity in assay [1] came out at 100%. In assay [3], this compound came in with an insecticidal activity of 100%.

In turn, `CCc1cc(C(F)(C(F)(F)F)C(F)(F)F)cc(C)c1NC(=O)c1ccc(CNC(=O)CC2CC2)c(Cl)c1` [Compound 5-80] yielded an acaricidal activity in assay [1] of 100%. In assay [2], the insecticidal activity stood at 100%.

With `CC(=O)NCc1ccc(C(=O)Nc2c(C)cc(C(F)(C(F)(F)F)C(F)(F)F)cc2Cl)cc1` [Compound 5-333], the acaricidal activity in assay [1] is reported as 100%.

Regarding `CCc1cc(C(F)(C(F)(F)F)C(F)(F)F)cc(C)c1NC(=O)c1ccc(CNC(=O)CC(F)(F)F)cc1` [Compound 5-32], the acaricidal activity in assay [1] is recorded as 100%. The compound further came in with an insecticidal activity in assay [2] of 100%.

Consider `CCC(=O)NCc1ccc(C(=O)Nc2c(C)cc(C(F)(C(F)(F)F)C(F)(F)F)cc2C)c(F)c1` [Compound 5-22], for which the insecticidal activity in assay [2] and in assay [3] was 100% each time.

In the case of `CCc1cc(C(F)(C(F)(F)F)C(F)(F)F)cc(C)c1NC(=O)c1ccc2c(c1)CCC2NC(=O)CC1CC1` (stereo not drawn) [Compound 10-5], the acaricidal activity in assay [1] amounted to 100%. This compound displayed an insecticidal activity in assay [2] of 100%.

On to `CCc1cc(C(F)(C(F)(F)F)C(F)(F)C(F)(F)F)cc(C)c1NC(=O)c1ccc(CNC(=O)c2cccnc2Cl)c(F)c1F` (stereo not drawn) [Compound 5-206], for which the insecticidal activity in assay [2] and in assay [3] was 100% in each case.

Compound `CCc1cc(C(F)(C(F)(F)F)C(F)(F)C(F)(F)F)cc(C)c1NC(=O)c1ccc(CNC(=O)CC2CC2)c(F)c1` (stereo not drawn) [Compound 5-147] displayed an acaricidal activity in assay [1] of 100%. In assay [2], this compound came in with an insecticidal activity of 100%.

The values above are taken from patent US9227923B2, “Pesticidal carboxamides” (Bayer Intellectual Property GmbH, priority 2009, dated 2016).
